Reference: US20240279302A1, “OLFACTORY RECEPTOR EXPRESSING METHOD AND RESPONSE MEASUREMENT METHOD” (Kao Corporation, priority 2021, published 2024)
Read-outs that look alike come from different tables or passages of the source.

Legend:
Experiment in all cases: Luciferase assay, sulfur compounds
Format in all cases: cell-based
[1] = biological target: T1, consensus OR12D3 (Homo sapiens, UniProt Q9UGF7, A145V/C216Y/C85S/G168H/G17S/G27V/H163R/I149T/M273V/M276I/M298L/M46I/M7V/S165N/S188G/S42A/S70C/S86T/V219I/V48I/V84L/Y177C); details: in the presence of a copper ion
T1 construct: expressed in transfected cells; host or cells: HEK293
T1 sequence (Q9UGF7 1-315 M7V/G17S/G27V/S42A/M46I/V48I/S70C/V84L/C85S/S86T/A145V/I149T/H163R/S165N/G168H/Y177C/S188G/C216Y/V219I/M273V/M276I/M298L): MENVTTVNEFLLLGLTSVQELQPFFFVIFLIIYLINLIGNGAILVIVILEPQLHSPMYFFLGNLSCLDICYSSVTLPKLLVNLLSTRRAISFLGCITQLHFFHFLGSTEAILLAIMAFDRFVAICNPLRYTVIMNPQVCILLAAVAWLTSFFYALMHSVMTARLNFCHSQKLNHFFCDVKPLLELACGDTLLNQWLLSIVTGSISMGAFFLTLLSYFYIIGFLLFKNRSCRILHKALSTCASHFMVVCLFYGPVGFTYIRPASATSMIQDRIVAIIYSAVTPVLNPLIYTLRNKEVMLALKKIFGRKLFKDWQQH
Experimental: (§1) A reaction solution as to each consensus olfactory receptor prepared in Examples described above was prepared according to the composition shown in Table 4, left standing for 20 minutes in a clean bench, and then added to each well of a 96-well plate (Becton, Dickinson and Company). The original olfactory receptor was used as to OR4S2. Composition shown in Table 20 was used as to OR11H2 and OR4E2. Subsequently, 100 μL of HEK293 cells suspended in DMEM (Nacalai Tesque, Inc.) was inoculated at 2×10^5 cells/cm^2 to each well, and cultured for 24 hours in an incubator kept at 37° C. and 5% CO2. Cells expressing no olfactory receptor (Mock) were provided as a control.
(§2) The medium was removed from the cultures prepared in 1), and 75 μL of a test substance solution (methyl mercaptan (MeSH) (CAS: 74-93-1, Tokyo Chemical Industry Co., Ltd.), dimethyl sulfide (DMS) (CAS: 75-18-3, FUJIFILM Wako Pure Chemical Corp.), dimethyl disulfide (DMDS) (CAS: 624-92-0, Tokyo Chemical Industry Co., Ltd.), concentration range: 0 μM, 1 μM, 3 μM, 10 μM, 30 μM, 100 μM, and 300 μM, or dimethyl trisulfide (DMTS) (CAS: 3658-80-8, Tokyo Chemical Industry Co., Ltd.), concentration range: 0 μM, 0.1 μM, 0.3 μM, 1 μM, 3 μM, 10 μM, and 30 μM) prepared with a fresh medium was added thereto. Under a copper ion addition condition, the test substance solution was adjusted to contain 30 μM copper(II) chloride (FUJIFILM Wako Pure Chemical Corp.) in addition to the odorant. The cells were cultured for 4 hours in a CO2 incubator and the luciferase gene was expressed sufficiently in the cells. Luciferase activity was measured using Dual-Glo™ luciferase assay system (Promega Corp.) in accordance with the operation manual of the product. A luminescence value derived from firefly luciferase induced by test substance stimulation in each well of the 96-well plate was divided by a luminescence value derived from Renilla luciferase to calculate a value (fluc/hRluc) as a signal, which was then used in analysis. The signal under each transfection condition was normalized with the signal value (fluc/hRluc) under an odorant stimulation-free condition defined as 0% and the signal value (fluc/hRluc) by stimulation with 10 μM forskolin defined as 100%, and used as a response (%) in analysis.

[2] = biological target: T2, consensus OR2T4 (Homo sapiens, UniProt Q8NH00, A104M/A342V/C83S/E340G/F135L/G202R/G259R/I245V/L252F/L277M/L47V/N218K/R201C/S177A/T338N/V244T/V317L)
T2 construct: expressed in transfected cells; host or cells: HEK293
T2 sequence (Q8NH00 with tags, fused parts or gaps L47V/C83S/A104M/F135L/S177A/R201C/G202R/N218K/V244T/I245V/L252F/G259R/L277M/V317L/T338N/E340G/A342V): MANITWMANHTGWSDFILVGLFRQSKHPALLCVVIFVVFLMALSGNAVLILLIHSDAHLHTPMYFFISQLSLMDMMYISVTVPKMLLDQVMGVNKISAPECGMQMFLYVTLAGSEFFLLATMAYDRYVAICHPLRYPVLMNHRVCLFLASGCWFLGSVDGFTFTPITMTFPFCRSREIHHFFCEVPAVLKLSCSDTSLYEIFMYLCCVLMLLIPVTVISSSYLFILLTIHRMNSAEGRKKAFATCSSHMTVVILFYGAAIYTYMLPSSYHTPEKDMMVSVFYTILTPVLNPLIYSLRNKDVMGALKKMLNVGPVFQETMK
Experimental: as §1, §2

[3] = biological target: T3, consensus OR2T1 (Homo sapiens, UniProt O43869, C277R/D138G/I77L/L118F/L265I/L324F/N134D/Q276H/S299T)
T3 construct: expressed in transfected cells; host or cells: HEK293
T3 sequence (O43869 52-369 I77L/L118F/N134D/D138G/L265I/Q276H/C277R/S299T/L324F): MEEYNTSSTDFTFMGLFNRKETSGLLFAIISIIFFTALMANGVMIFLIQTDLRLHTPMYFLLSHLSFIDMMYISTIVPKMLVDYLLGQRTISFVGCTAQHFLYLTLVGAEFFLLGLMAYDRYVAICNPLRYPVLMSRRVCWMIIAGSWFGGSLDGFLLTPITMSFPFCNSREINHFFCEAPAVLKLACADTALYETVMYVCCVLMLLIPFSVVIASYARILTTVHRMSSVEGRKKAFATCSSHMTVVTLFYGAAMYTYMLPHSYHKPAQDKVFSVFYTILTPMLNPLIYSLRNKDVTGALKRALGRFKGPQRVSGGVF
Experimental: as §1, §2

[4] = biological target: T4, consensus OR4E2 (Homo sapiens, UniProt Q8NGC2, A48T/F285L/G158V/H228Q/I116T/I142V/I197M/I47V/L183P/M219T/M25I/M36V/Q234R/R21W/S209T/S40L/S54R/T201S/T49I/T99A/V118M/V214L); details: for dose dependence of the response of consensus OR4E2 / response of consensus OR4E2: in the presence of a copper ion
T4 construct: Flag (N); Rho tag (N); expressed in transfected cells; host or cells: HEK293
T4 sequence (Q8NGC2 1-312 R21W/M25I/M36V/S40L/I47V/A48T/T49I/S54R/T99A/I116T/V118M/I142V/G158V/L183P/I197M/T201S/S209T/V214L/M219T/H228Q/Q234R/F285L limits assumed): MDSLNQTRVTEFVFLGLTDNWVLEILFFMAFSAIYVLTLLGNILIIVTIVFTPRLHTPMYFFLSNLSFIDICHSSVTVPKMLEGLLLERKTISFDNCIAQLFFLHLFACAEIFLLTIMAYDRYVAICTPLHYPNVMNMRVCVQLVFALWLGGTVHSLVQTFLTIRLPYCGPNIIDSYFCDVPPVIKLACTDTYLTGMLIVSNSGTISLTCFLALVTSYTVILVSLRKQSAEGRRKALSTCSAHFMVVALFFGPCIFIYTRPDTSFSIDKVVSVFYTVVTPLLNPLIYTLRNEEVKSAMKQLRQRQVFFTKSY
Experimental: as §1, §2

[5] = in the presence of a copper ion

| EC50 ([4]; consensus OR4E2, 30 μM CuCl2, read-out: EC50(μM) with 30 μM CuCl2) | Structure (SMILES) | response of consensus OR12D3 [1] | response of consensus OR2T4 [2, 5] | response of consensus OR2T1 [3, 5] | EC50 [4] | dose dependence of the response of consensus OR4E2 [4] | response of consensus OR4E2 [4] | EC50 [2] | dose dependence of the response of consensus OR2T4 [2, 5] | EC50 [3] | dose dependence of the response of consensus OR2T1 [3, 5] |
| --- | --- | --- | --- | --- | --- | --- | --- | --- | --- | --- | --- |
|  | CSSC [dimethyl disulfide] | responded | responded | responded | 397 µM | dose-dependent response | responded |  |  |  |  |
| 33 µM | CSSSC [dimethyl trisulfide] | responded | responded | responded |  | dose-dependent response | responded |  |  |  |  |
|  | CS [methyl mercaptan] | responded | responded | responded | 250 µM | dose-dependent response | responded | 340 µM | dose-dependent response | 33 µM | dose-dependent response |
